The molecules below were run against T1, hGPR40 (Homo sapiens, UniProt O14842) (assay: Calcium flux assay to detect GPR40 activation). Conditions: CHO-K cells stably expressing hGPR40; Fluo-4 NW; read for 4 min at 5 s intervals.
T1 construct: expressed in transfected cells
Format: cell-based
Protocol: Biological Activity Calium Flux Assay to Detect GPR40 Activation: CHO-K cells stably expressing hGPR40 were selected in a media containing Neomycin/G418. The cells were plated at a concentration of 20,000 cells per well in black 96-well clear bottom tissue culture treated plates. The cells were cultured for 24 h at 37° C. in a humidified 5% CO2 air environment to allow for protein expression. The next day, after removal of media from wells, Fluo-4 NW (Invitrogen) is added at 100 ul/well and the cells were incubated for 30 min at 37° C. and for a further 30 min at RT. All test compounds were diluted to appropriate concentrations in HEPES buffer. Compounds were added to the cells and the wells were read in the BioTEK synergy reader and readings were taken for 4 min with an interval of 5 s.

T1 sequence (O14842 whole entry): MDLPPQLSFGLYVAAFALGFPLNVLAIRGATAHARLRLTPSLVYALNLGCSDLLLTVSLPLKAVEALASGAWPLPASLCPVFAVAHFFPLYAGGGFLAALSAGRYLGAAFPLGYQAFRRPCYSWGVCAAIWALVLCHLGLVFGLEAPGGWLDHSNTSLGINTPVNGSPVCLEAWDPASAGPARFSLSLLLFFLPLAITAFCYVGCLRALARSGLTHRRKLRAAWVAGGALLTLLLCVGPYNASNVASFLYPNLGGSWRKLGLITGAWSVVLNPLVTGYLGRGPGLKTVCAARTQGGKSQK

EC50, > 100 nM:
CO/N=C(/c1ccccc1)c1ccc(CNc2ccc(CCC(=O)O)cc2)cc1 [Compound 3, 3-[4-({4-[(E,Z)-(Methoxyimino)(phenyl)methyl]benzyl}amino)phenyl]propanoic acid]
CO/N=C(\COc1ccc(COc2ccc(/C(CC(=O)O)=N\OC3CCCCC3)cc2)cc1)c1ccccc1 [Compound 124, (3E,3Z)-3-[(Cyclohexyloxy)imino]-3-{4-[(4-{[(2Z)-2-(methoxyimino)-2-phenylethyl]oxy}benzyl)oxy]phenyl}propanoic acid]
CON=C(COc1ccc(COc2ccc(CCC(=O)O)c(OCC(=O)O)c2)cc1)c1ccccc1 (mixture of isomers) [Compound 89, 3-{2-(Carboxymethoxy)-4-[(4-{[(2E,2Z)-2-(methoxyimino)-2-phenylethyl]oxy}benzyl)oxy]phenyl}propanoic acid]
CO/N=C(\COc1ccc(COc2ccc(C(C#N)CC(=O)O)cc2)cc1)C1CC1 (centres unmarked) [Compound 105, 3-Cyano-3-{4-[(4-{[(2Z)-2-cyclopropyl-2-(methoxyimino)ethyl]oxy}benzyl)oxy]phenyl}propanoic acid]
CO/N=C(\COc1ccc(COc2ccc(CCC(=O)O)c(C)c2)cc1)c1ccccc1 [Compound 38]
CO/N=C(\COc1ccc(COc2ccc(C(CC(=O)O)c3ccccc3)cc2)cc1)c1ccccc1 (centres unmarked) [Compound 112, 3-{4-[(4-{[(2Z)-2-(Methoxyimino)-2-phenylethyl]oxy}benzyl)oxy]phenyl}-3-phenylpropanoic acid]
CO/N=C(\COc1ccc(COc2ccc(CCC(=O)O)cc2)cc1)c1ccc(S(C)(=O)=O)cc1 [Compound 92, 3-(4-{[4-({(2Z)-2-(Methoxyimino)-2-[4-(methylsulfonyl)phenyl]ethyl}oxy)benzyl]oxy}phenyl)propanoic acid]
CO/N=C(\COc1ccc(COc2ccc(C3CC3C(=O)O)cc2)cc1)c1ccc(C#N)cc1 (single isomer, unassigned) [Compound 79, Sodium 2-{4-[(4-{[(2Z)-2-(4-cyanophenyl)-2-(methoxyimino)ethyl]oxy}benzyl)oxy]phenyl}cyclopropanecarboxylate]
CO/N=C(\COc1cccc(CNc2ccc(CCC(=O)O)cc2)c1)c1ccccc1 [Compound 5]
CO/N=C(\COc1ccc(COc2ccc(CCC(=O)O)c(C#N)c2)cc1)c1ccccc1 [Compound 42, 3-{2-Cyano-4-[(4-{[(2E,2Z)-2-(methoxyimino)-2-phenylethyl]oxy}benzyl)oxy]phenyl}propanoic acid]
CO/N=C(\COc1ccc(COc2ccc(OCC(=O)O)cc2)cc1)c1ccccc1 [Compound 117, {4-[(4-{[(2Z)-2-(Methoxyimino)-2-phenylethyl]oxy}benzyl)oxy]phenoxy}acetic acid]
CO/N=C(\COc1ccc(COc2ccc(CCC(=O)O)c(CC#N)c2)cc1)c1ccccc1 [Compound 44, 3-{2-(Cyanomethyl)-4-[(4-{[(2Z)-2-(methoxyimino)-2-phenylethyl]oxy}benzyl)oxy]phenyl}propanoic acid]
CO/N=C(\COc1ccc(COc2ccc(/C=C/C(=O)O)c(OC)c2)cc1)c1ccccc1 [Compound 95, (2E,2Z)-3-{2-Methoxy-4-[(4-{[(2Z)-2-(methoxyimino)-2-phenylethyl]oxy}benzyl)oxy]phenyl}prop-2-enoic acid]
CO/N=C(\c1ccccc1)c1cccc(COc2ccc(CC(=O)O)cc2)c1 [Compound 19, [4-({3-[(E,Z)-(Methoxyimino)(phenyl)methyl]benzyl}oxy)phenyl]acetic acid]
CO/N=C(\COc1ccc(COc2ccc(C(O)CC(=O)O)cc2)cc1)c1ccccc1 (centres unmarked) [Compound 119, 3-Hydroxy-3-{4-[(4-{[(2Z)-2-(methoxyimino)-2-phenylethyl]oxy}benzyl)oxy]phenyl}propanoic acid]
CO/N=C(\COc1ccc(COc2ccc(CCC(=O)O)c(F)c2)cc1)c1ccccc1 [Compound 71, Sodium 3-{2-fluoro-4-[(4-{[(2Z)-2-(methoxyimino)-2-phenylethyl]oxy}benzyl)oxy]phenyl}propanoate]

EC50, < 10 nM:
CO/N=C(\COc1ccc(COc2ccc(C(CC(=O)O)c3ccon3)cc2)cc1)c1ccccc1 (centres unmarked) [Compound 29, Sodium 3-{4-[(4-{[(2Z)-2-(methoxyimino)-2-phenylethyl]oxy}benzyl)oxy]phenyl}-3-(1,2-oxazol-3-yl)propanoate]
CO/N=C(\COc1ccc(COc2ccc(CCC(=O)O)c(F)c2)cc1)c1ccccc1 [Compound 36, 3-{2-Fluoro-4-[(4-{[(2Z)-2-(methoxyimino)-2-phenylethyl]oxy}benzyl)oxy]phenyl}propanoic acid]
CO/N=C(\COc1ccc(COc2ccc(C(C#N)CC(=O)O)cc2)cc1)c1ccc(OC)cc1 (centres unmarked) [Compound 66, 3-Cyano-3-{4-[(4-{[(2Z)-2-(methoxyimino)-2-(4-methoxyphenyl)ethyl]oxy}benzyl)oxy]phenyl}propanoic acid]
CO/N=C(/COc1ccc(COc2ccc(C(C#N)CC(=O)O)cc2)cc1)c1ccc(F)cc1 (racemic) [Compound 22, 3-Cyano-3-{4-[(4-{[(2E,2Z)-2-(4-fluorophenyl)-2-(methoxyimino)ethyl]oxy}benzyl)oxy]phenyl}propanoic acid]
CO/N=C(\COc1ccc(COc2ccc(C(C#N)CC(=O)O)cc2)cc1)c1ccccc1 (centres unmarked) [Compound 18, Sodium 3-cyano-3-{4-[(4-{[(2Z)-2-(methoxyimino)-2-phenylethyl]oxy}benzyl)oxy]phenyl}propanoate]
CO/N=C(\COc1ccc(COc2ccc(CCC(=O)O)c(F)c2)cc1)c1ccc(OC)cc1 [Compound 40, 3-{2-Fluoro-4-[(4-{[(2Z)-2-(methoxyimino)-2-(4-methoxyphenyl)ethyl]oxy}benzyl)oxy]phenyl}propanoic acid]
CO/N=C(/COc1ccc(COc2ccc(C(C#N)CC(=O)O)cc2)cc1)c1ccc(C#N)cc1 (racemic) [Compound 33, 3-Cyano-3-{4-[(4-{[(2E,2Z)-2-(4-cyanophenyl)-2-(methoxyimino)ethyl]oxy}benzyl)oxy]phenyl}propanoic acid]
CO/N=C(/COc1ccc(COc2ccc(C(C#N)CC(=O)O)cc2)c(F)c1)c1ccccc1 (racemic) [Compound 23, 3-Cyano-3-{4-[(2-fluoro-4-{[(2E,2Z)-2-(methoxyimino)-2-phenylethyl]oxy}benzyl)oxy]phenyl}propanoic acid]
CC#CC(CC(=O)O)c1ccc(OCc2ccc(OC/C(=N\OC)c3ccccc3)cc2)cc1 (centres unmarked) [Compound 85, 3-{4-[(4-{[(2Z)-2-(Methoxyimino)-2-phenylethyl]oxy}benzyl)oxy]phenyl}hex-4-ynoic acid]

EC50, 10 to 100 nM:
CO/N=C(\COc1ccc(COc2ccc(C(C#N)CC(=O)O)cc2)cc1)c1ccccc1 (single isomer, unassigned; (+)) [Compound 81, (+)-Sodium 3-cyano-3-{4-[(4-{[(2Z)-2-(methoxyimino)-2-phenylethyl]oxy}benzyl)oxy]phenyl}propanoate]
CO/N=C(/c1ccccc1)c1cccc(COc2ccc(CCC(=O)O)cc2)c1 [Compound 1, 3-[4-({3-[(E,Z)-(methoxyimino)(phenyl)methyl]benzyl}oxy)phenyl]propanoic acid]
CO/N=C(/c1ccccc1)c1cccc(CNc2ccc(C3CC3C(=O)O)cc2)c1 (racemic) [Compound 13, (1R,2R)-2-[4-({3-[(E,Z)-(Methoxyimino)(phenyl)methyl]benzyl}amino)phenyl]cyclopropanecarboxylic acid]
CO/N=C(\COc1ccc(COc2ccc(C(C#N)CC(=O)O)c(C)c2)cc1)c1ccccc1 (centres unmarked) [Compound 62, 3-Cyano-3-{4-[(4-{[(2Z)-2-(methoxyimino)-2-phenylethyl]oxy}benzyl)oxy]-2-methylphenyl}propanoic acid]
CO/N=C(\COc1ccc(COc2ccc(C3CC3C(=O)O)cc2)cc1)c1ccc(OC)cc1 (centres unmarked) [Compound 57, Sodium 2-{4-[(4-{[(2Z)-2-(methoxyimino)-2-(4-methoxyphenyl)ethyl]oxy}benzyl)oxy]phenyl}cyclopropanecarboxylate]
CO/N=C(\COc1ccc(COc2ccc(C(CC(=O)O)c3ccon3)cc2)cc1)c1ccccc1 (centres unmarked) [Compound 17, 3-{4-[(4-{[(2Z)-2-(methoxyimino)-2-phenylethyl]oxy}benzyl)oxy]phenyl}-3-(1,2-oxazol-3-yl)propanoic acid]
CO/N=C(\COc1ccc(COc2ccc(C3CC3C(=O)O)cc2)cc1)c1ccc(OC)cc1 (centres unmarked) [Compound 46, 2-{4-[(4-{[(2Z)-2-(Methoxyimino)-2-(4-methoxyphenyl)ethyl]oxy}benzyl)oxy]phenyl}cyclopropanecarboxylic acid]
CO/N=C(\COc1ccc(COc2ccc(/C(C#N)=C/C(=O)O)cc2)cc1)c1ccccc1 [Compound 76, (2Z)-3-Cyano-3-{4-[(4-{[(2Z)-2-(methoxyimino)-2-phenylethyl]oxy}benzyl)oxy]phenyl}prop-2-enoic acid]
N#CC(CC(=O)O)c1ccc(OCc2ccc(OC/C(=N\OC3CCCCC3)c3ccccc3)cc2)cc1 (centres unmarked) [Compound 111, 3-Cyano-3-(4-{[4-({(2Z)-2-[(cyclohexyloxy)imino]-2-phenylethyl}oxy)benzyl]oxy}phenyl)propanoic acid]
CO/N=C(/COc1ccc(COc2ccc(C(C#N)CC(=O)O)cc2)cc1)c1ccccc1 (single isomer, unassigned) [Compound 100, 3-Cyano-3-{4-[(4-{[(2E)-2-(methoxyimino)-2-phenylethyl]oxy}benzyl)oxy]phenyl}propanoic acid]
